Experimental data from PMC4078514, “A Bombesin-Shepherdin Radioconjugate Designed for Combined Extra- and Intracellular Targeting” (Pharmaceuticals, 2014).

Key:
[1] = LogD determination, shake flask method (n-octanol/PBS); assay type: physicochemical; conditions: shake-flask n-octanol/PBS pH 7.4 (1:1, 1 mL, pre-saturated); 10 µL (1 µM) radiolabeled peptide; vortexed 1 min, centrifuged 3,000 rpm 10 min; gamma counter read-out; 2-3 experiments each in quintets, mean ± SD
Description: The hydrophilicity of the radiolabeled peptides 12–16 was evaluated by determination of their partition coefficient between n-octanol and phosphate buffered saline (PBS, pH 7.4) using the shake flask method. In brief, 10 µL (1 µM) of radiolabeled peptides 12–16 were added to a pre-saturated solution of n-octanol and PBS (1:1, 1 mL) and the tubes were vortexed (1 min) and centrifuged (3,000 rpm, 10 min). Aliquots of 100 µL of each phase were radiometrically measured in a gamma counter and the logD values were calculated by the logarithm of the ratio between the radioactive counts in the octanol fraction and the radioactive counts in the PBS fraction. The experiment was performed 2–3 times, each in quintets, and results are reported by mean values ± standard deviation (SD).

[2] = system: GRP-r overexpressing PC-3 cells; assay: Internalization assay in PC-3 cells; assay type: cell-based, human; conditions: 0.25 pmol, 1.5-2.0 kBq/well, within 30-60 min, percentage of applied dose normalized to 10^6 cells, n = 2-3 in triplicates, approximate
Description: Cell culturing of human prostate adenocarcinoma (PC-3) cells and in vitro assays (internalization, receptor saturation binding, and externalization) were performed as previously described and are thus described only in brief.
For the determination of cellular uptake, PC-3 cells were incubated with the radiolabeled peptides [^99mTc(CO)3(L)] (L = 14–16; 0.25 pmol; 1.5–2.0 kBq/well) for different time points to allow binding and internalization. Non-specific receptor binding and internalization was determined by incubating the cells with excess of natural bombesin(1–14) as a receptor blocking agent. At each time point, the supernatant was collected, representing the free radiopeptide fraction. The cell surface receptor bound fraction was obtained by treating the cells with an acidic saline glycine buffer (100 mM NaCl, 50 mM glycine, pH 2.8; 2 times for 5 min, on ice). The internalized fraction was determined by cell lysis with 1 M NaOH (10 min). Fractions of free, receptor-bound, and internalized radiopeptide were radiometrically measured in the gamma counter and calculated as percentage of applied dose normalized to 10^6 cells for all time points (n = 2–3 in triplicates, reported by means ± SD). […]

[3] = molecular target: Hsp90; conditions: reported high affinity; read-out: affinity towards Hsp90; cited from earlier work

Compound | logD [1] | applied radioactivity internalized [2] | Kd [3]
CCCC[C@H](NC(=O)[C@H](CC(C)C)NC(=O)[C@H](Cc1c[nH]cn1)NC(=O)CNC(=O)[C@@H](NC(=O)[C@H](C)NC(=O)[C@H](Cc1c[nH]c2ccccc12)NC(=O)[C@H](CCC(N)=O)NC(=O)CCNC(=O)CCNC(=O)CCNC(=O)Cn1cc(CN[C@@H](CCCCNC(C)=O)C(=O)O)nn1)C(C)C)C(N)=O [[^99mTc(CO)3(16)], metal not drawn] | -0.44 ± 0.07 | 25%–30% | 
KHSSG [shepherdin(79–83)] |  |  | 80 nM
